Assay results published in article PMC11056994, “Potentiating Activity of GmhA Inhibitors on Gram-Negative Bacteria” (Journal of Medicinal Chemistry, 2024).
Like-named read-outs stand apart in the source and are kept apart here.

Experiments:
Type in all cases: cell-based
HepG2 cytotoxicity = settings: human, HepG2 cells; n = 2
Method: HepG2 cells (LGC Promochem, ref HB-8065) in EMEM medium supplemented with fetal bovine serum (10%), Ampicillin (100 mg/L), and Streptomycin (100 mg/L) were plated on cell culture plates (Costar 3596, 2 × 10^4 cells/well) and incubated overnight at 37 °C in 5% CO2. The culture medium was then aspirated and replaced by supplemented EMEM (210 μL including 2% DMSO) containing dilutions of compounds. Plates were incubated overnight at 37 °C in 5% CO2. Cell viability was determined by the Celltiter Aqueous One Cell Proliferation Assay (G3581–80, Promega) according to the manufacturer’s recommendations, using a Multiskan absorption reader (490 nm).

[1] = tested on: E. coli C7 (018:K1:H7) LPS biosynthesis; assay: Inhibition of bacterial LPS biosynthesis (silver-stained LPS SDS-PAGE); settings: Escherichia coli; E. coli C7 LPS biosynthesis by SDS-PAGE; mean ± SD of 3 experiments for 17 and 24, n = 1 for others; read-out: EC50
Method: The compounds to be tested were prepared in deionized water/DMSO (50/50) solutions and added (25 μL) in sterile culture microtubes. The test bacterial isolate was isolated on tryptic soy agar (TSA) overnight. Isolated colonies were cultured in 10 mL of LB medium at 37 °C up to an OD of typically 0.15. These exponentially growing bacteria were finally diluted to 5 × 10^5 cfu/mL and added in each well (225 μL) for incubation with the compounds at 37 °C for approximately 5 h, up to an OD of ≈0.2–0.4. Some test compounds, e.g., phospho-sugars are actively transported into the bacterial cytosol via the phospho-sugar transporter UhpT (Figure S3). 2.5 μL portion of a 10 mM water solution of glucose-6-phosphate (G6P, 100 μM final concentration, from Sigma) was added in the culture tube in order to induce UhpT expression. LPS extraction: Bacterial cultures were normalized via OD determination, pelleted, and washed with 1 mL of phosphate-buffered-saline (PBS). The pellets were then denatured for 10 min at 95–100 °C in 50 μL of 0.2% sodium dodecyl sulfate (SDS), β-mercaptoethanol 1%, glycerol 36%, Tris 30 mM, pH 7.4, and bromophenol blue 0.001%. Samples were cooled down to room temperature, supplemented with 1.5 μL of proteinase K at 20 mg/mL, incubated for 1 h at 55 °C, and centrifuged for 30 min at 13,000 rpm at 25 °C. The resulting supernatant, containing LPS, was finally analyzed by SDS-PAGE electrophoresis. LPS SDS-PAGE electrophoresis: Polyacrylamide gels (16%/4% acrylamide for separation and concentration, respectively) were prepared, loaded with 8 μL of LPS extracts, and migrated. Silver staining: Gels were incubated overnight in 5% acetic acid/40% ethanol/deionized water, treated by 1% periodic acid/5% acetic acid for 15 min, washed 4 times for 10 min in deionized water, and finally incubated for 18 min in the dark in a silver nitrate solution composed of 56 mL of 0.1 M NaOH (56 mL), 33% aq ammonia (4 mL), 5% AgNO3 (45 mL), and deionized water (195 mL). Gels were then washed extensively in deionized water for 30 min and incubated for 10–15 min (up to LPS band appearance) in the revelation mix composed of 300 mL of deionized water (300 mL), 36.5% formaldehyde (0.3 mL, Fluka), and 2.3 M citric acid (0.1 mL). The revelation was stopped by incubating the gels in 10% acetic acid for 5 min. Gels were finally washed in deionized water, numerized with a Samsung PL51 camera, and analyzed by ImageJ software. The percentage of inhibition of LPS heptosylation was defined as the relative area of the Re-LPS band compared to the cumulated areas of Re-LPS and Core-LPS bands.

E. coli C7 = assay: MIC of the compounds alone on E. coli C7; settings: compound alone, n = 2, read-out: MIC E. coli C7
Method: Then, we investigated the cytotoxicity and the ability of such inhibitors to potentiate the antimicrobial activity of macrolide and rifamycin antibiotics.
(§1) The compound to be tested was diluted in 50 mM HEPES buffer (pH 7.4) from 10 mM stock solution in DMSO. Five microliters of compound dilution or buffer were distributed in a sterile clear round-bottom 96-well polystyrene microplate (Corning). Five microliters of serial 2-fold dilutions of reference antibiotics [Erythromycin (Fluka), Rifampicin (Fluka)] in DMSO were added. An exponentially growing preculture of E. coli C7 (O18:K1:H7) in LB was diluted to 10^4 cfu/mL and supplemented with 100 μM G6P, and 90 μL of this suspension were added to the microplates. After overnight incubation at 37 °C, the MIC of the antibiotics were determined for each test compound concentration as the lowest antibiotic concentration for which no bacterial pellet is visible without magnification.

E. coli C7 (O18:K1:H7) [2] = assay: MIC determination of antibiotics combined with a GmhA inhibitor; settings: 17 at 27 mg/L (100 μM), glucose-6-phosphate 100 μM, E. coli C7
Method: as §1

[3] = tested on: E. coli S1 LPS heptosylation; assay: LPS heptosylation inhibition in clinical isolate E. coli S1; settings: Escherichia coli; E. coli S1, ESBL; 100 μM glucose-6-phosphate; n = 1
Method: (§2) Compound 17 was also tested against clinical isolates of E. coli,[…], and K. pneumoniae for its ability to block LPS heptosylation (EC50). As detailed in Table 3, 17 in the presence of the UhpT inducer glucose-6-phosphate (100 μM) is a specific inhibitor of LPS heptosylation against various strains, including multiresistant clinical isolates expressing ESBL, AmpC, or NDM-1.
(§3) The compounds to be tested were prepared in deionized water/DMSO (50/50) solutions and added (25 μL) in sterile culture microtubes. The test bacterial isolate was isolated on tryptic soy agar (TSA) overnight. Isolated colonies were cultured in 10 mL of LB medium at 37 °C up to an OD of typically 0.15. These exponentially growing bacteria were finally diluted to 5 × 10^5 cfu/mL and added in each well (225 μL) for incubation with the compounds at 37 °C for approximately 5 h, up to an OD of ≈0.2–0.4. Some test compounds, e.g., phospho-sugars are actively transported into the bacterial cytosol via the phospho-sugar transporter UhpT (Figure S3). […] The resulting supernatant, containing LPS, was finally analyzed by SDS-PAGE electrophoresis. […] Gels were finally washed in deionized water, numerized with a Samsung PL51 camera, and analyzed by ImageJ software. […]

[4] = tested on: K. pneumoniae S3 LPS heptosylation; assay: LPS heptosylation inhibition in clinical isolate K. pneumoniae S3; settings: Klebsiella pneumoniae, read-out: EC50 of LPS heptosylation
Method: as §2, §3

[5] = tested on: E. cloacae S2 LPS heptosylation; assay: LPS heptosylation inhibition in clinical isolate E. cloacae S2; settings: Enterobacter cloacae; E. cloacae S2, AmpC; 100 μM glucose-6-phosphate; n = 1
Method: as §2, §3

E. coli C7 (O18:K1:H7) [6] = assay: Time-kill kinetics of rifampicin in combination with compound 17
Method: Rifampicin (Fluka) was diluted in DMSO, and the compound to be tested was diluted in water from 50 mM stock solution in 50 mM HEPES buffer, pH 7.4. Ten microliter of DMSO was distributed in sterile 1.5 mL polypropylene microtubes (Eppendorf). 2.5 μL of compound dilution or water, 2.5 μL of Rifampicin or DMSO, 2.5 μL of 10 mM G6P in water (100 μM final concentration), and 230 μL of LB were added to the microtubes. E. coli C7 (O18:K1:H7) was grown in 5 mL of LB broth at 37 °C until mid-log phase. The suspension was then diluted in LB to obtain a 100× inoculum of 5 × 10^7 cfu/mL, 2.5 μL of which were added to each microtube (5 × 10^5 cfu/mL final inoculum). The microtubes were incubated at 37 °C, and aliquots of 10 μL were sampled at 0, 2, 4, 6, 8, and 24 h for bacterial enumeration in duplicate.

Question: What does the source list for O=CN(O)C[C@H](O)[C@H](O)[C@H](O)COP(=O)(O)O [Compound 17]?
Answer: CC50 (HepG2 cytotoxicity): > 1000 µM; EC50 [1]: 20 ± 3 µM; MIC (E. coli C7; Escherichia coli, C7): > 1000 µM; MIC (E. coli C7): >1000 µM; potentiation of erythromycin (E. coli C7 (O18:K1:H7) [2]): 32 fold; potentiation of rifampicin (E. coli C7 (O18:K1:H7) [2]): 16 fold; EC50 [3]: 21 µM; EC50 [4]: 21 µM; EC50 [5]: 18 µM; effect on bacterial growth, compound alone (E. coli C7 (O18:K1:H7) [6]; 17 300 μM alone or rifampicin 1 mg/L alone): did not alter at all the bacterial growth; bacterial counts at 24 h (E. coli C7 (O18:K1:H7) [6]; 17 (300 μM) combined with rifampicin (1 mg/L), 24 h): no detectable counts; reduction of the bacterial inoculum (E. coli C7 (O18:K1:H7) [6]; 17 (300 μM) combined with rifampicin (1 mg/L), in less than 6 h): more than 3 log
